Assays:
[1] = molecular target: T1, LTAaj (L-threonine aldolase from Aeromonas jandaei; L-allo-threonine aldolase) (Aeromonas jandaei, UniProt O07051); assay: UV-vis spectroscopy of internal aldimine ([…]-420 nm); assay type: binding; conditions: 50 mM sodium phosphate pH 8.0, 22 °C; covalent Schiff base with K199
T1 construct: gene ltaA; C-terminal His-tag, expressed in E. coli BL21(DE3), Ni-NTA purified, homotetramer, PLP-dependent
T1 sequence (O07051 1-338): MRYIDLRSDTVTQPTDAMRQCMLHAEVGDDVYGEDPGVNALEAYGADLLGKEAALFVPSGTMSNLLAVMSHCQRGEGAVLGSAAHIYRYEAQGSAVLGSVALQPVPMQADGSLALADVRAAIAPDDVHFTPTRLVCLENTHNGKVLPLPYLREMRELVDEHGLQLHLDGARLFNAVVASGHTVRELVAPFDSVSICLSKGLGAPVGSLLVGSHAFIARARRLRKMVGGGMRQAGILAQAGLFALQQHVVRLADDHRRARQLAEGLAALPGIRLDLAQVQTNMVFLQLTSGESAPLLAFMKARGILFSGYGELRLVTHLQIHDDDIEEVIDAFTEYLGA

[2] = molecular target: T1, LTAaj (L-threonine aldolase from Aeromonas jandaei; L-allo-threonine aldolase); assay: UV-vis spectroscopy of external aldimine ([…] nm) and quinonoid ([…] nm); assay type: binding; conditions: 50 mM sodium phosphate pH 8.0, 22 °C, 0.1 M glycine; PLP enzyme; covalent

Cc1ncc(COP(=O)(O)O)c(C=O)c1O [PLP]
UV-vis spectroscopy of internal aldimine (410-420 nm) [1]: Formation of the (A) internal aldimine

NCC(=O)O [glycine]
UV-vis spectroscopy of external aldimine (420 nm) and quinonoid (495 nm) [2]: external aldimine with the glycine substrate in the wild type LTAaj and its mutants

From publication PMC5986058 (FEBS Open Bio, 2018)
